Reference: PubChem BioAssay AID2060506 (Molecular Pharmacology Branch, DTP, NCI, 2025)
pIC50: −log10 of the molar value. Each block holds one molecule with its values, some of them ahead of it.

Tested on: 598228-144-R-J1-PDC complex spheroid viability
Assay: Anticancer human tumor 598228-144-R-J1-PDC patient-derived serous endometrial adenocarcinoma cell line growth inhibition [GQUAD]
Conditions: for pIC50: curve of first compound; for viability, T/C: stronger effect = lower value
Procedure, shortened: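 Multi-cell-type spheroids of tumor cells with HUVEC and mesenchymal stem cells, treated with drug combinations. Concentrations descend in half-log steps from near clinical Cmax, or from 10 microM where Cmax is unknown; viability read-out.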

[1] = second compound 0.0316 µM, first compound 0.0316 µM
[2] = second compound 0.0316 µM, first compound 0.1 µM
[3] = second compound 0.0316 µM, first compound 0.316 µM
[4] = second compound 0.0316 µM, first compound 1 µM
[5] = second compound 0.0316 µM, first compound 3.16 µM
[6] = second compound 0.0316 µM, first compound 10 µM
[7] = second compound 0.1 µM, first compound 0.0316 µM
[8] = second compound 0.1 µM, first compound 0.1 µM
[9] = second compound 0.1 µM, first compound 0.316 µM
[10] = second compound 0.1 µM, first compound 1 µM
[11] = second compound 0.1 µM, first compound 3.16 µM
[12] = second compound 0.1 µM, first compound 10 µM
[13] = second compound 0.316 µM, first compound 0.0316 µM
[14] = second compound 0.316 µM, first compound 0.1 µM
[15] = second compound 0.316 µM, first compound 0.316 µM
[16] = second compound 0.316 µM, first compound 1 µM
[17] = second compound 0.316 µM, first compound 3.16 µM
[18] = second compound 0.316 µM, first compound 10 µM
[19] = second compound 1 µM, first compound 0.0316 µM
[20] = second compound 1 µM, first compound 0.1 µM
[21] = second compound 1 µM, first compound 0.316 µM
[22] = second compound 1 µM, first compound 1 µM
[23] = second compound 1 µM, first compound 3.16 µM
[24] = second compound 1 µM, first compound 10 µM
[25] = second compound 3.16 µM, first compound 0.0316 µM
[26] = second compound 3.16 µM, first compound 0.1 µM
[27] = second compound 3.16 µM, first compound 0.316 µM
[28] = second compound 3.16 µM, first compound 1 µM
[29] = second compound 3.16 µM, first compound 3.16 µM
[30] = second compound 3.16 µM, first compound 10 µM
[31] = second compound 10 µM, first compound 0.0316 µM
[32] = second compound 10 µM, first compound 0.1 µM
[33] = second compound 10 µM, first compound 0.316 µM
[34] = second compound 10 µM, first compound 1 µM
[35] = second compound 10 µM, first compound 3.16 µM
[36] = second compound 10 µM, first compound 10 µM
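Further: spheroids exposed to the agents for one week before reading.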
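Wherever viability, T/C is given: percent of vehicle DMSO control viability so 100% = untreated growth.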

pIC50 (second compound 0.0316 µM): < 5.00
pIC50 (second compound 0.1 µM): < 5.00
pIC50 (second compound 0.316 µM): < 5.00
pIC50 (second compound 1 µM): 5.05
pIC50 (second compound 3.16 µM): 7.50
pIC50 (second compound 10 µM): > 7.50
Compound: C#Cc1c(F)ccc2cc(O)cc(-c3ncc4c(N5CC6CCC(C5)N6)nc(OCC56CCCN5CC(F)C6)nc4c3F)c12 (stereo not given) + Cc1cnc(CNC(=O)c2c(=O)c3ccc(N4CCCN(C)CC4)nc3n3c2sc2ccccc23)cn1
viability, T/C [1]: 99.8%
viability, T/C [2]: 88.6%
viability, T/C [3]: 85.6%
viability, T/C [4]: 83.2%
viability, T/C [5]: 101%
viability, T/C [6]: 81.7%
viability, T/C [7]: 64.3%
viability, T/C [8]: 77.7%
viability, T/C [9]: 71.6%
viability, T/C [10]: 63.7%
viability, T/C [11]: 69.7%
viability, T/C [12]: 68.7%
viability, T/C [13]: 75%
viability, T/C [14]: 58.8%
viability, T/C [15]: 62.7%
viability, T/C [16]: 55.4%
viability, T/C [17]: 69.9%
viability, T/C [18]: 53.1%
viability, T/C [19]: 57%
viability, T/C [20]: 53.4%
viability, T/C [21]: 54%
viability, T/C [22]: 58.9%
viability, T/C [23]: 52.4%
viability, T/C [24]: 46.1%
viability, T/C [25]: 46.5%
viability, T/C [26]: 50.9%
viability, T/C [27]: 46.8%
viability, T/C [28]: 40.5%
viability, T/C [29]: 52.2%
viability, T/C [30]: 27.9%
viability, T/C [31]: 25.5%
viability, T/C [32]: 30.3%
viability, T/C [33]: 20.4%
viability, T/C [34]: 24.2%
viability, T/C [35]: 7.19%
viability, T/C [36]: 0.48%

pIC50 (second compound 0.0316 µM): 5.16
pIC50 (second compound 0.1 µM): 5.19
pIC50 (second compound 0.316 µM): 5.31
pIC50 (second compound 1 µM): 5.28
pIC50 (second compound 3.16 µM): 5.44
pIC50 (second compound 10 µM): > 7.50
Compound: CCCS(=O)(=O)Nc1ccc(F)c(C(=O)c2c[nH]c3ncc(-c4ccc(Cl)cc4)cc23)c1F + Cc1cnc(CNC(=O)c2c(=O)c3ccc(N4CCCN(C)CC4)nc3n3c2sc2ccccc23)cn1
viability, T/C [1]: 92.8%
viability, T/C [2]: 96%
viability, T/C [3]: 113%
viability, T/C [4]: 92.5%
viability, T/C [5]: 109%
viability, T/C [6]: 26.9%
viability, T/C [7]: 77.7%
viability, T/C [8]: 81.5%
viability, T/C [9]: 60.7%
viability, T/C [10]: 65.6%
viability, T/C [11]: 92.2%
viability, T/C [12]: 34.4%
viability, T/C [13]: 59.4%
viability, T/C [14]: 82%
viability, T/C [15]: 74%
viability, T/C [16]: 62.3%
viability, T/C [17]: 65.7%
viability, T/C [18]: 27.3%
viability, T/C [19]: 64.5%
viability, T/C [20]: 70.7%
viability, T/C [21]: 62.3%
viability, T/C [22]: 65.6%
viability, T/C [23]: 73.8%
viability, T/C [24]: 27.7%
viability, T/C [25]: 59.9%
viability, T/C [26]: 47.5%
viability, T/C [27]: 48.4%
viability, T/C [28]: 61.5%
viability, T/C [29]: 65.6%
viability, T/C [30]: 0.38%
viability, T/C [31]: 33.5%
viability, T/C [32]: 32.5%
viability, T/C [33]: 18.7%
viability, T/C [34]: 24.7%
viability, T/C [35]: 40.9%
viability, T/C [36]: 0.26%

The next lines start with the molecule.

Compound: C=CCn1c(=O)c2cnc(Nc3ccc(N4CCN(C)CC4)cc3)nc2n1-c1cccc(C(C)(C)O)n1 + Cc1cnc(CNC(=O)c2c(=O)c3ccc(N4CCCN(C)CC4)nc3n3c2sc2ccccc23)cn1
pIC50 (second compound 0.0316 µM): 5.00
pIC50 (second compound 0.1 µM): 6.35
pIC50 (second compound 0.316 µM): 5.91
pIC50 (second compound 1 µM): 6.18
pIC50 (second compound 3.16 µM): > 7.50
pIC50 (second compound 10 µM): > 7.50
viability, T/C [1]: 76%
viability, T/C [2]: 95%
viability, T/C [3]: 61.1%
viability, T/C [4]: 44.1%
viability, T/C [5]: 45.2%
viability, T/C [6]: 61.6%
viability, T/C [7]: 82.7%
viability, T/C [8]: 74.3%
viability, T/C [9]: 51.7%
viability, T/C [10]: 45.5%
viability, T/C [11]: 43.7%
viability, T/C [12]: 38%
viability, T/C [13]: 71.4%
viability, T/C [14]: 74.5%
viability, T/C [15]: 65.9%
viability, T/C [16]: 52.5%
viability, T/C [17]: 40.6%
viability, T/C [18]: 42.6%
viability, T/C [19]: 86.5%
viability, T/C [20]: 55.4%
viability, T/C [21]: 55.3%
viability, T/C [22]: 60.3%
viability, T/C [23]: 41.6%
viability, T/C [24]: 39.8%
viability, T/C [25]: 50.8%
viability, T/C [26]: 47.6%
viability, T/C [27]: 42.3%
viability, T/C [28]: 41%
viability, T/C [29]: 52.5%
viability, T/C [30]: 41.1%
viability, T/C [31]: 24.5%
viability, T/C [32]: 42.1%
viability, T/C [33]: 19.2%
viability, T/C [34]: 0.53%
viability, T/C [35]: 0.58%
viability, T/C [36]: 21.5%

Compound: CC(C)(O)C1CCC(Nc2ccc3ncc(-c4cccc(C(F)(F)F)c4)n3n2)CC1 (stereo not given) + Cc1cnc(CNC(=O)c2c(=O)c3ccc(N4CCCN(C)CC4)nc3n3c2sc2ccccc23)cn1
pIC50 (second compound 0.0316 µM): 5.86
pIC50 (second compound 0.1 µM): 6.05
pIC50 (second compound 0.316 µM): 5.92
pIC50 (second compound 1 µM): 5.90
pIC50 (second compound 3.16 µM): 6.40
pIC50 (second compound 10 µM): > 7.50
viability, T/C [1]: 76.5%
viability, T/C [2]: 93.7%
viability, T/C [3]: 73.2%
viability, T/C [4]: 62.9%
viability, T/C [5]: 16.7%
viability, T/C [6]: 17.8%
viability, T/C [7]: 73.7%
viability, T/C [8]: 69.2%
viability, T/C [9]: 70.2%
viability, T/C [10]: 46.4%
viability, T/C [11]: 22.9%
viability, T/C [12]: 10.9%
viability, T/C [13]: 77%
viability, T/C [14]: 53.6%
viability, T/C [15]: 74.7%
viability, T/C [16]: 56.1%
viability, T/C [17]: 17.7%
viability, T/C [18]: 17.6%
viability, T/C [19]: 64.2%
viability, T/C [20]: 45.9%
viability, T/C [21]: 58.2%
viability, T/C [22]: 65.8%
viability, T/C [23]: 13.6%
viability, T/C [24]: 18.3%
viability, T/C [25]: 51.2%
viability, T/C [26]: 56.8%
viability, T/C [27]: 55.2%
viability, T/C [28]: 32.6%
viability, T/C [29]: 0.22%
viability, T/C [30]: 0.19%
viability, T/C [31]: 25.4%
viability, T/C [32]: 0.49%
viability, T/C [33]: 33%
viability, T/C [34]: 0.33%
viability, T/C [35]: 0.26%
viability, T/C [36]: 5.96%

Compound: COc1ncnc(C2CC2)c1-c1ncc2cnn(Cc3ccc(-c4nc(C(F)(F)F)cn4C(C)C)cc3)c2n1 + Cc1cnc(CNC(=O)c2c(=O)c3ccc(N4CCCN(C)CC4)nc3n3c2sc2ccccc23)cn1
pIC50 (second compound 0.0316 µM): < 5.00
pIC50 (second compound 0.1 µM): < 5.00
pIC50 (second compound 0.316 µM): < 5.00
pIC50 (second compound 1 µM): < 5.00
pIC50 (second compound 3.16 µM): < 5.00
pIC50 (second compound 10 µM): > 7.50
viability, T/C [1]: 81%
viability, T/C [2]: 88.8%
viability, T/C [3]: 72.9%
viability, T/C [4]: 86.8%
viability, T/C [5]: 102%
viability, T/C [6]: 85.4%
viability, T/C [7]: 67.3%
viability, T/C [8]: 79.3%
viability, T/C [9]: 95.1%
viability, T/C [10]: 68.4%
viability, T/C [11]: 63.9%
viability, T/C [12]: 78.2%
viability, T/C [13]: 82.6%
viability, T/C [14]: 77.5%
viability, T/C [15]: 60.9%
viability, T/C [16]: 73.4%
viability, T/C [17]: 80.7%
viability, T/C [18]: 65.2%
viability, T/C [19]: 77.6%
viability, T/C [20]: 76.4%
viability, T/C [21]: 69.8%
viability, T/C [22]: 62.8%
viability, T/C [23]: 71.2%
viability, T/C [24]: 90%
viability, T/C [25]: 62.3%
viability, T/C [26]: 65.9%
viability, T/C [27]: 60.5%
viability, T/C [28]: 53.8%
viability, T/C [29]: 57.8%
viability, T/C [30]: 65.1%
viability, T/C [31]: 38.7%
viability, T/C [32]: 24.8%
viability, T/C [33]: 31.6%
viability, T/C [34]: 24.8%
viability, T/C [35]: 34.6%
viability, T/C [36]: 23.6%
